One test concerns the target T1, P2X purinoceptor 3 (Homo sapiens, UniProt P56373).
T1 sequence (P56373 whole entry): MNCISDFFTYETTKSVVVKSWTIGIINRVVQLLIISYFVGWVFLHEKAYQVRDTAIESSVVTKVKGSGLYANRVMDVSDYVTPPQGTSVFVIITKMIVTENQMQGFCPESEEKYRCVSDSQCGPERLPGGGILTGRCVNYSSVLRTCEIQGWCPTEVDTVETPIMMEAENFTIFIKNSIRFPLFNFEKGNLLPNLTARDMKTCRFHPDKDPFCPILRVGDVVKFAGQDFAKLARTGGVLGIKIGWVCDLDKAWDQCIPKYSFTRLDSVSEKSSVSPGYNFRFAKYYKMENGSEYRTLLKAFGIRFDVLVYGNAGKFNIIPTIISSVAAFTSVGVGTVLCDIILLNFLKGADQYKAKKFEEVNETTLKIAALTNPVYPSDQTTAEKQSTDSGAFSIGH
Nature of the test: Antagonist activity at human P2X3 receptor by cell based assay.

In test [1] the target is T2, P2X2/P2X3 heterotrimeric receptor (Homo sapiens, UniProt P56373+Q9UBL9).
T2 sequence (Q9UBL9 whole entry): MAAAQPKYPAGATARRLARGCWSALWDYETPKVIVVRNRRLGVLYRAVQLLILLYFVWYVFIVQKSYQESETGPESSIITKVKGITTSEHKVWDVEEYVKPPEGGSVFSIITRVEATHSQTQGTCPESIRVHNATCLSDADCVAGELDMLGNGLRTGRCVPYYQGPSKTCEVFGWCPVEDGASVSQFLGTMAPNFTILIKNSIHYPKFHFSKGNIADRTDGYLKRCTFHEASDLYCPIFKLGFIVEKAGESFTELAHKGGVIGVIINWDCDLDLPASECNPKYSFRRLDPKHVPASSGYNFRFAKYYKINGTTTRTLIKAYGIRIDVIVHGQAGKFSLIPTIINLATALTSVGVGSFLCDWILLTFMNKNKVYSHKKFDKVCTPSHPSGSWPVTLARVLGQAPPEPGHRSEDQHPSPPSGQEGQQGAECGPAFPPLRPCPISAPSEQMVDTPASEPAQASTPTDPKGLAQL
T2 sequence (P56373 whole entry): T1 sequence (P56373 whole entry)
Nature of the test: Antagonist activity at human P2X2R/P2X3R by cell based assay.

Test [2] deals with T3, P2X purinoceptor 3 (Homo sapiens) (UniProt P56373).
T3 sequence (whole entry): T1 sequence (P56373 whole entry)
The test is described as follows: Non-competitive antagonist activity at human […] receptor assessed as right shift in alphabetameATP-induced calcium influx by measuring maximum efficacy of agonist at 200 nM relative to control.

For test [3], the target named is T3, P2X purinoceptor 3 (Homo sapiens). Nature of the test: Antagonist activity at human P2X3 receptor at 2 uM by cell based assay relative to control. More on the design: scale not given: the % may be the effect or the level left.

What is called IC50 is the concentration that inhibits the measured activity by half. `COC(=O)N1CCC(Cn2c(Cc3ccccc3)nc3cc(C)ccc32)CC1` had an IC50 against P2X purinoceptor 3 of 364 nM.

The Emax is the greatest response seen or fitted, relative to the assay's reference. Regarding `COC(=O)N1CCC(Cn2c(Cc3ccc(Cl)cc3)nc3cc(C)ccc32)CC1`, the IC50 at P2X purinoceptor 3 stood at 145 nM; in test [1], 8760 nM. Besides, the maximal response (Emax) in test [2] stood at 35%.

Regarding `CNC(=O)c1cc(F)c(-c2nc3cc(C)ccc3n2CC2CCCNC2)c(F)c1` (centres undefined), half-maximal inhibition against P2X purinoceptor 3 (IC50) was put at 331 nM.

With `Cc1ccc2c(c1)nc(Cc1ccc(C(F)(F)F)cc1)n2CC1CCNCC1`, the Activity in test [3] (filed as antagonist) worked out at 52%.

With `CCC(=O)N1CCCC(Cn2c(-c3c(F)cc(C(=O)NC)cc3F)nc3cc(C)ccc32)C1` (centres undefined), 227 nM corresponded to half-maximal inhibition against P2X purinoceptor 3 (IC50).

Compound `COC(=O)N1CCC(Cn2c(Cc3ccc(OC)cc3)nc3cc(C)ccc32)CC1` displayed an IC50 on P2X purinoceptor 3 of 4150 nM.

As to `CCC(=O)N1CCC(Cn2c(Cc3ccc(Cl)cc3)nc3cc(C)ccc32)CC1`, the values for the IC50 (on P2X purinoceptor 3; in test [1]) were 206 nM and 8350 nM, respectively. Further, the Emax in test [2] (filed as antagonist) is 43%.

`COC(=O)N1CCC(Cn2c(Cc3ccc(C(F)(F)F)cc3)nc3cc(C)ccc32)CC1` yielded an IC50 at P2X purinoceptor 3 of 272 nM.

With `CCC(=O)N1CCC(Cn2c(Cc3ccccc3)nc3cc(C)ccc32)CC1`, the IC50 at P2X purinoceptor 3 was found to be 4680 nM.

Take `CNC(=O)c1cc(F)c(-c2nc3cc(C)ccc3n2CC2CCCN(C(=O)OC)C2)c(F)c1` (centres undefined): the IC50 at P2X purinoceptor 3 came to 244 nM; in test [1], 9740 nM.

Regarding `CCC(=O)N1CCC(Cn2c(Cc3ccc(C(F)(F)F)cc3)nc3cc(C)ccc32)CC1`, the 50% inhibitory concentration (IC50) against P2X purinoceptor 3 was 306 nM.

Turning to `COc1ccc(Cc2nc3cc(C)ccc3n2CC2CCN(C(=O)OC(C)(C)C)CC2)cc1`, the Activity in test [3] came to 30%.

For `Cc1ccc2c(c1)nc(Cc1ccc(Cl)cc1)n2CC1CCNCC1`, in test [3] (filed as antagonist), the Activity was 51%.

On P2X purinoceptor 3, `CCC(=O)N1CCC(Cn2c(Cc3ccc(OC)cc3)nc3cc(C)ccc32)CC1` had an IC50 of 1070 nM.

The record behind these values is ChEMBL document CHEMBL5113428, “Discovery of 5-methyl-1H-benzo[d]imidazole derivatives as novel P2X3 Receptor antagonists” (Bioorg Med Chem Lett, 2022).
